The text below walks through data of US9428542B2, “Lupane triterpenoid derivatives and pharmaceutical use thereof” (priority 2012, dated 2016).

Read-outs that look alike come from different tables or passages of the source. Bounds are passed on as bounds.

Data set [1] deals with MT-2 cells. The experiment in a line: Compounds' cytotoxicity assay in MT-2 cells (CellTiter-Glo). The class given is cell-based. More on the design: unit not given here. Conditions: toxicity in MT-2 cells, 3 days. The procedure: 3. Method for Compounds' Cytotoxicity Assay:
The MT-2 cells are diluted to a needed concentration. 90 μl of the MT-2 cells suspension was added into 384-well plates containing 10 μl of the tested compounds. Compounds were dissolved in DMSO and tested as 11 points 3-fold serial dilutions. After addition of cells to compound plates, plates were placed to humidified 5% CO2 37 incubator for 3 days. The Luciferase activity was measured by CellTiter-Glo® Luminescent Cell Viability Assay kit (Promega Corp., WI, USA).
(§1) TC50 is referred to the toxicity in MT-2 cells by the compounds tested at 50% concentration; IC50 is referred to the inhibiting HIV-1IIIB replication in MT-2 cells by the compounds tested at 50% concentration; Therapeutic Index (TI)=TC50/IC50.

Data set [2] concerns HIV-1IIIB. Description: HIV-1 full replication assay (HIV-1IIIB-infected MT-2 cells, supernatant read out on TZM-bl cells, β-Gal). The class given is cell-based. How it is done: The antiviral activity of the compounds of the present invention was determined in a HIV-1 full replication assay.
In this assay, MT-2 cells that are infected with HIV-1IIIB were co-cultured with different concentration of the tested compounds for 3 days and then supernatant is transferred into new 384-well plates containing TZM-bl cells (also called JC53-bl). TZM-bl cells that could be infected by various kinds of HIV-1 strains stably express a great amount of HIV-1 receptor, co-receptor CD4 molecular, and co-receptor CXCR4 and CCR5. TZM-bl cells harbor LTR-luciferase and β-gal two report genes. The expression of luciferase and β-gal reporter directed by HIV-1 LTR can be activated by Tat protein generated after HIV infection, and the quantity of expression is proportional to the quantity of HIV-1. Compounds that interfere with virus replication in MT-2 cells, maturation of the virus, or post-entry steps in the HIV lifecycle decrease the luciferase signal or β-gal signal. In this experiment, BVM (Bevirimat, PA-457) is used as a positive control drug.
Method for Inhibiting HIV-1 Replication Assay:
The MT-2 cells are infected at a Multiciplicity (MOI) of 0.01 TCID50, and then the MT-2 cells suspension was diluted to a needed concentration. 90 μl of the MT-2 cells suspension from above was added into 384-well plates containing 10 μl of the tested compounds.
Compounds were dissolved in DMSO and tested as 11 points 3-fold serial dilutions. After addition of cells to compound plates, plates were placed to humidified 5% CO2 37 incubator for 3 days. 10 μl of cells culture supernatant from the incubated plates was transferred into new black 384-well plates.
Adjusted the TZMb1 cells concentration and 40 μl of TZMb1 cells was added into each well in the black 384-well plates. After addition of the TZMb1 cells to the black plates, black plates were placed to humidified 5% CO2 37 incubator for 24 h, then β-Gal activity was measured.
The anti viral activity %=(measured number-lowest mean number)/(highest mean number-lowest mean number)×100. The IC50 values were calculated by Median Equation and the IC curve was generated by Graphpad Prism V 5.03.
as §1

[3] abbreviates: Human immunodeficiency virus 1, MT2, 72 h, inhibiting HIV-1IIIB replication in MT-2 cells, 3 days, read-out: IC50 (PM).
Where [4] appears, read: Human immunodeficiency virus 1, MT2, HIV replication in MT-2 cell (HIV-1IIIB) assay, read-out: IC50.

In the case of `CC(C)C1=C2[C@H]3CC[C@@H]4[C@@]5(C)CC[C@H](OC(=O)CC(C)(C)C(=O)O)C(C)(C)[C@@H]5CC[C@@]4(C)[C@]3(C)CC[C@@]2(c2cc(=O)n(Cc3ccc(Cl)cc3)n2C)CC1=O` [91′-1], the “TC50 (PM)” value in data set [1] is on record as 22. Turning to `CC(C)C1=C2[C@H]3CC[C@@H]4[C@@]5(C)CC[C@H](OC(=O)CC(C)(C)C(=O)O)C(C)(C)[C@@H]5CC[C@@]4(C)[C@]3(C)CC[C@@]2(Cc2cc(=O)n(-c3ccc(Cl)cc3)n2C)CC1=O` [98′-1], the IC50 in data set [2] (setting [3]) was at most 0.17 nM. The “TC50 (PM)” value in data set [1] was determined as 62.

`CC(C)C1=C2[C@H]3CC[C@@H]4[C@@]5(C)CC[C@H](OC(=O)CC(C)(C)C(=O)O)C(C)(C)[C@@H]5CC[C@@]4(C)[C@]3(C)CC[C@@]2(Cc2cc(=O)n(-c3ccc(Cl)cn3)n2C)CC1=O` [98′-2]: in data set [2] (setting [3]), the IC50 was found to be 0.37 nM. The “TC50 (PM)” value in data set [1] is listed as 56. Consider `C=C(C)[C@@H]1CC[C@]2(C(=O)O)CC[C@]3(C)[C@H](CC[C@@H]4[C@@]5(C)CC[C@H](OC(=O)CC(C)(C)C(=O)O)C(C)(C)[C@@H]5CC[C@]43C)[C@@H]12` [BVM, Bevirimat, reference compound], for which, in data set [2] (Human immunodeficiency virus 1, MT2, 72 h, read-out: IC50 (PM)), the IC50 is 5 nM.

With `CC(C)C1=C2[C@H]3CC[C@@H]4[C@@]5(C)CC[C@H](OC(=O)CC(C)(C)C(=O)O)C(C)(C)[C@@H]5CC[C@@]4(C)[C@]3(C)CC[C@@]2(Cc2nnc(-c3ccc(Cl)cc3)o2)CC1=O` [Compound 22-1], the IC50 in data set [2] (setting [3]) stood at 3.3 nM. Further, the “TC50 (PM)” value in data set [1] was 46. On the same counts, the results for `CC(C)C1=C2[C@H]3CC[C@@H]4[C@@]5(C)CC[C@H](OC(=O)CC(C)(C)C(=O)O)C(C)(C)[C@@H]5CC[C@@]4(C)[C@]3(C)CC[C@@]2(Cc2nnc(-c3ccccc3)o2)CC1=O` [Compound 22-2] are 1.7 nM and 28. On the same counts, the results for `CC(C)C1=C2[C@H]3CC[C@@H]4[C@@]5(C)CC[C@H](OC(=O)CC(C)(C)C(=O)O)C(C)(C)[C@@H]5CC[C@@]4(C)[C@]3(C)CC[C@@]2(Cc2nnc(-c3ccc(Cl)cn3)o2)CC1=O` [Compound 22-3] are 1.6 nM and 36.

Turning to `CC(C)C1=C2[C@H]3CC[C@@H]4[C@@]5(C)CC[C@H](OC(=O)CC(C)(C)C(=O)O)C(C)(C)[C@@H]5CC[C@@]4(C)[C@]3(C)CC[C@@]2(Cc2nnc(-c3cccnc3)o2)CC1=O` [Compound 22-9], the IC50 in data set [2] (setting [3]) was 4.3 nM. Also, the “TC50 (PM)” value in data set [1] is 33. As to `CC(C)C1=C2[C@H]3CC[C@@H]4[C@@]5(C)CC[C@H](OC(=O)CC(C)(C)C(=O)O)C(C)(C)[C@@H]5CC[C@@]4(C)[C@]3(C)CC[C@@]2(Cc2nnc(-c3ccc(C(F)(F)F)cn3)o2)CC1=O` [Compound 22-12], the IC50 in data set [2] (setting [3]) is 0.4 nM. Besides, the “TC50 (PM)” value in data set [1] is listed as 31.

Turning to `CC(C)C1=C2[C@H]3CC[C@@H]4[C@@]5(C)CC[C@H](OC(=O)CC(C)(C)C(=O)O)C(C)(C)[C@@H]5CC[C@@]4(C)[C@]3(C)CC[C@@]2(Cc2nnc(-c3ccc(Cl)cc3F)o2)CC1=O` [Compound 22-13], the IC50 in data set [2] (setting [3]) was 1.7 nM. Moreover, the “TC50 (PM)” value in data set [1] was 35. On the same counts, the results for `CC(C)C1=C2[C@H]3CC[C@@H]4[C@@]5(C)CC[C@H](OC(=O)CC(C)(C)C(=O)O)C(C)(C)[C@@H]5CC[C@@]4(C)[C@]3(C)CC[C@@]2(Cc2nnc(-c3ccc(Br)cn3)o2)CC1=O` [Compound 22-14] are at most 0.17 nM and 200. As to `CC(C)C1=C2[C@H]3CC[C@@H]4[C@@]5(C)CC[C@H](OC(=O)CC(C)(C)C(=O)O)C(C)(C)[C@@H]5CC[C@@]4(C)[C@]3(C)CC[C@@]2(Cc2nnc(-c3ccc(C#N)cn3)o2)CC1=O` [Compound 22-15], the IC50 in data set [2] (setting [3]) came out at 2.1 nM. Besides, the “TC50 (PM)” value in data set [1] amounted to 34. On the same counts, the results for `CC(C)C1=C2[C@H]3CC[C@@H]4[C@@]5(C)CC[C@H](OC(=O)CC(C)(C)C(=O)O)C(C)(C)[C@@H]5CC[C@@]4(C)[C@]3(C)CC[C@@]2(Cc2nnc(-c3ncc(Cl)cn3)o2)CC1=O` [Compound 22-16] are 0.48 nM and 39. On the same counts, the results for `COc1ccc(-c2nnc(C[C@@]34CC[C@]5(C)[C@H](CC[C@@H]6[C@@]7(C)CC[C@H](OC(=O)CC(C)(C)C(=O)O)C(C)(C)[C@@H]7CC[C@]65C)C3=C(C(C)C)C(=O)C4)o2)nc1` [Compound 22-17] are 2.8 nM and 200. On the same counts, the results for `CC(C)C1=C2[C@H]3CC[C@@H]4[C@@]5(C)CC[C@H](OC(=O)CC(C)(C)C(=O)O)C(C)(C)[C@@H]5CC[C@@]4(C)[C@]3(C)CC[C@@]2(Cc2nnc(-c3ccc(F)cn3)o2)CC1=O` [Compound 22-18] are 1.7 nM and 48.

`CC(C)C1=C2[C@H]3CC[C@@H]4[C@@]5(C)CC[C@H](OC(=O)CC(C)(C)C(=O)O)C(C)(C)[C@@H]5CC[C@@]4(C)[C@]3(C)CC[C@@]2(c2nnc(-c3ccc(Cl)cc3)o2)CC1=O` [Compound 27-1]: the IC50 in data set [2] (setting [3]) was 3.3 nM. Moreover, in data set [1], the “TC50 (PM)” value is 50. In the case of `CC(C)C1=C2[C@H]3CC[C@@H]4[C@@]5(C)CC[C@H](OC(=O)CC(C)(C)C(=O)O)C(C)(C)[C@@H]5CC[C@@]4(C)[C@]3(C)CC[C@@]2(c2nnc(-c3ccccc3)o2)CC1=O` [Compound 27-2], the IC50 in data set [2] (setting [3]) came to 2 nM. Further, the “TC50 (PM)” value in data set [1] is given as 100.

Regarding `CC(C)C1=C2[C@H]3CC[C@@H]4[C@@]5(C)CC[C@H](OC(=O)CC(C)(C)C(=O)O)C(C)(C)[C@@H]5CC[C@@]4(C)[C@]3(C)CC[C@@]2(c2nnc(-c3ccc(Cl)cn3)o2)CC1=O` [Compound 27-3], the half-inhibitory concentration (IC50) in data set [2] (setting [3]) is 1.5 nM. In data set [1], the “TC50 (PM)” value is 36. As for `CC(C)C1=C2[C@H]3CC[C@@H]4[C@@]5(C)CC[C@H](OC(=O)CC(C)(C)C(=O)O)C(C)(C)[C@@H]5CC[C@@]4(C)[C@]3(C)CC[C@@]2(c2cc(=O)n(CCN(C)C)n2C)CC1` [Compound 89-3], the IC50 in data set [2] (setting [4]) is below 5 nM. In the case of `CC(C)C1=C2[C@H]3CC[C@@H]4[C@@]5(C)CC[C@H](OC(=O)CC(C)(C)C(=O)O)C(C)(C)[C@@H]5CC[C@@]4(C)[C@]3(C)CC[C@@]2(c2cc(=O)n(Cc3ccc(Cl)cc3)n2C)CC1=O` [Compound 91-1], the “TC50 (PM)” value in data set [1] is on record as 41. Consider `CC(C)C1=C2[C@H]3CC[C@@H]4[C@@]5(C)CC[C@H](OC(=O)CC(C)(C)C(=O)O)C(C)(C)[C@@H]5CC[C@@]4(C)[C@]3(C)CC[C@@]2(c2cc(=O)n(CCN(C)C)n2C)CC1=O` [Compound 91-4], for which, in data set [2] (setting [4]), the IC50 was below 2 nM.

For the compound `CC(C)C1=C2[C@H]3CC[C@@H]4[C@@]5(C)CC[C@H](OC(=O)CC(C)(C)C(=O)O)C(C)(C)[C@@H]5CC[C@@]4(C)[C@]3(C)CC[C@@]2(c2c(Cl)c(=O)n(-c3ccc(Cl)cc3)n2C)CC1=O` [Compound 98-8], the IC50 in data set [2] (setting [4]) was below 2 nM.

Consider `CC(C)C1=C2[C@H]3CC[C@@H]4[C@@]5(C)CC[C@H](OC(=O)CC(C)(C)C(=O)O)C(C)(C)[C@@H]5CC[C@@]4(C)[C@]3(C)CC[C@@]2(c2c(Cl)c(=O)n(-c3ccc(Cl)cc3)n2CCN)CC1=O` [Compound 155-2], for which the IC50 in data set [2] (setting [4]) was below 2 nM. Still for that read-out and setting: for `CC(C)C1=C2[C@H]3CC[C@@H]4[C@@]5(C)CC[C@H](OC(=O)CC(C)(C)C(=O)O)C(C)(C)[C@@H]5CC[C@@]4(C)[C@]3(C)CC[C@@]2(c2c(Cl)c(=O)n(-c3ccc(Cl)cc3)n2CCN(C)C)CC1=O` [Compound 156-2] the value was below 2 nM; for `CC(C)C1=C2[C@H]3CC[C@@H]4[C@@]5(C)CC[C@H](OC(=O)CC(C)(C)C(=O)O)C(C)(C)[C@@H]5CC[C@@]4(C)[C@]3(C)CC[C@@]2([C@@H](O)c2nnc(-c3ccc(Cl)cc3)n2CCN)CC1=O` [Compound 164-1], below 2 nM.

Take `CC(C)C1=C2[C@H]3CC[C@@H]4[C@@]5(C)CC[C@H](OC(=O)CC(C)(C)C(=O)O)C(C)(C)[C@@H]5CC[C@@]4(C)[C@]3(C)CC[C@@]2([C@@H](O)c2nnc(-c3ccc(Cl)cc3)n2CCN(C)C)CC1=O` [Compound 165-1]: the half-maximal inhibitory concentration (IC50) in data set [2] (setting [4]) is below 2 nM.
